Source: patent US8940861B2, “Variants of ancestral uricases and uses thereof” (Georgia Tech Research Corporation, priority 2010, dated 2015)

Columns and labels:
[1] = biological target: T1, pig uricase, SEQ ID NO:10 (Sus scrofa, UniProt P16164); details: 0.1M Na2HPO4/Na2H2PO4, pH 7.4; 24° C.
T1 sequence (P16164 1-304): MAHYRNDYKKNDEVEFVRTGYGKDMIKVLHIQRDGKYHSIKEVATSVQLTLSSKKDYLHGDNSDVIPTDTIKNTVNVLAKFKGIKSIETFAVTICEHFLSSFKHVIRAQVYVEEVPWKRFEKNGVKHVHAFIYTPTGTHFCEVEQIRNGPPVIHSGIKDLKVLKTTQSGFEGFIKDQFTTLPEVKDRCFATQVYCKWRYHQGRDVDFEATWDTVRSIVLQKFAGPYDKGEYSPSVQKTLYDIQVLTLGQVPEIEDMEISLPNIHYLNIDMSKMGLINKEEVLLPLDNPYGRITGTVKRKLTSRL

[2] = system: ancestral mammalian uricase Node 19 (four identical subunits), SEQ ID NO:2; experiment: Uricolytic activity, A293 decrease, steady-state kinetics; assay type: biochemical; details: 0.1M Na2HPO4/Na2H2PO4, pH 7.4; 24° C.
Source text: (§1) Uricases were designed using Ancestral Sequence Reconstruction (ASR) to reconstruct and resurrect ancestral forms of human uricase based upon an analysis of modern mammalian uricases. See generally Gaucher, “Ancestral sequence reconstruction as a tool to understand natural history and guide synthetic biology: Realizing (and extending) the vision of Zukerkandl and Pauling” in ANCESTRAL SEQUENCE RECONSTRUCTION, ed. David A. Liberles, pp. 20-33 (Oxford University Press, 2007). Ancestral uricase sequences corresponding to various nodes of the phylogenetic tree were inferred by analyzing modern mammalian uricase sequences (FIG. 1), and uricases were designed based upon those inferred sequences. Uricase subunits of the present invention may therefore comprise an amino acid sequence corresponding to the inferred amino acid sequence at one of the nodes highlighted in FIG. 1 (e.g., Node 18, Node 19, Node 26, Node 27, Node 30, Node 31 or Node 32) or to a variant of the inferred amino acid sequence at one of the nodes highlighted in FIG. 1.

[3] = system: ancestral mammalian uricase Node 26 (four identical subunits), SEQ ID NO:3; experiment: as above; assay type: biochemical; details: phosphate buffered saline, pH 7.4
Source text: as §1

[4] = system: ancestral mammalian uricase Node 27 (four identical subunits), SEQ ID NO:4; experiment: as above; assay type: biochemical; details: phosphate buffered saline, pH 7.4; 24° C.
Source text: as §1

[5] = system: pig-baboon chimeric uricase (amino acids 1-225 of SEQ ID NO:10 and amino acids 226-304 of SEQ ID NO:11); experiment: as above; assay type: biochemical; details: 0.1M Na2HPO4/Na2H2PO4, pH 7.4; 24° C.

Vmax [1]: 2.4 × 10^−3 μmol uric acid/min
Km [2]: 4 µM
Vmax [2]: 4.3 × 10^−3 μmol uric acid/min
kcat [2]: 5.42 s⁻¹
Km ([3]; 24° C.): 4.9 µM
Vmax ([3]; 24° C.): 1.4 × 10^−3 μmol uric acid/min
kcat ([3]; 24° C.): 1.25 s⁻¹
Km ([3]; 37° C.): 4.9 µM
Vmax ([3]; 37° C.): 4.3 × 10^−3 μmol uric acid/min
kcat ([3]; 37° C.): 3.75 s⁻¹
Km [4]: 5.3 µM
Vmax [4]: 8.1 × 10^−4 μmol uric acid/min
kcat [4]: 0.417 s⁻¹
Km [5]: 2.2 µM
Vmax [5]: 2.8 × 10^−3 μmol uric acid/min
kcat [5]: 4.78 s⁻¹
Compound: O=c1[nH]c(=O)c2[nH]c(=O)[nH]c2[nH]1 [uric acid]
